Experimental data: PMC8979739, “Phytochemical Profiling of the Leaf Extract of Ximenia americana var. caffra and Its Antioxidant, Antibacterial, and Antiaging Activities In Vitro and in Caenorhabditis elegans: A Cosmeceutical and Dermatological Approach” (Oxidative Medicine and Cellular Longevity, 2022)
pIC50: −log10 of the molar value. Like-named read-outs stand apart in the source and are kept apart here.

How the values were obtained:
DPPH assay = assay: DPPH assay
Protocol: (§1) Total phenolic content was estimated using the Folin–Ciocalteu method as described in a previous study, while antioxidant activity was determined using two colorimetric methods, DPPH assay and FRAP assay. The analysis was performed as in the previous study.

[1] = molecular target: Porcine pancreatic elastase (Sus scrofa, UniProt P00772); assay: Elastase inhibition; assay type: biochemical; settings: for IC50: read-out: Elastase IC50 (converted)
Porcine pancreatic elastase, sequence (P00772 27-266): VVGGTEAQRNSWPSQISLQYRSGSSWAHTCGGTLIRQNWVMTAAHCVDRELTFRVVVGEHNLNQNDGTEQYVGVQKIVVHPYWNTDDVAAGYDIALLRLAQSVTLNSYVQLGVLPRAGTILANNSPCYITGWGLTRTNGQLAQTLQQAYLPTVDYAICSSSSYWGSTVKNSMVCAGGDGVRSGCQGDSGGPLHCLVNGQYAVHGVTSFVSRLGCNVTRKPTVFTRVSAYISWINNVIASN
Protocol: This assay was performed according to a previous study. Porcine pancreatic elastase was used in this assay at stock concentration of 3.33 mg/mL in sterile water. N-Succinyl-[…]-nitroanilide ([…]) was used as a substrate and dissolved in buffer to make up 1.6 mM solution. A serial dilution of the extract with amount of 50 μL each was incubated with the enzyme for 15 min, and the substrate was added subsequently and makes up the final reaction mixture of 250 μL. Absorbance value was measured at 400 nm using a microplate reader. Each measurement was made in triplicate. The percentage of elastase inhibition (%) was calculated according to the formula: inhibition (%) = [(Acontrol - Asample/Acontrol) × 100]. […] A control: absorbance value of the elastase activity from negative control (solution without samples)

hyaluronidase = molecular target: T1, hyaluronidase (Bos taurus, UniProt Q2YDK3); assay: Hyaluronidase inhibition; assay type: biochemical; settings: mean ± SD
T1 sequence (Q2YDK3 36-553): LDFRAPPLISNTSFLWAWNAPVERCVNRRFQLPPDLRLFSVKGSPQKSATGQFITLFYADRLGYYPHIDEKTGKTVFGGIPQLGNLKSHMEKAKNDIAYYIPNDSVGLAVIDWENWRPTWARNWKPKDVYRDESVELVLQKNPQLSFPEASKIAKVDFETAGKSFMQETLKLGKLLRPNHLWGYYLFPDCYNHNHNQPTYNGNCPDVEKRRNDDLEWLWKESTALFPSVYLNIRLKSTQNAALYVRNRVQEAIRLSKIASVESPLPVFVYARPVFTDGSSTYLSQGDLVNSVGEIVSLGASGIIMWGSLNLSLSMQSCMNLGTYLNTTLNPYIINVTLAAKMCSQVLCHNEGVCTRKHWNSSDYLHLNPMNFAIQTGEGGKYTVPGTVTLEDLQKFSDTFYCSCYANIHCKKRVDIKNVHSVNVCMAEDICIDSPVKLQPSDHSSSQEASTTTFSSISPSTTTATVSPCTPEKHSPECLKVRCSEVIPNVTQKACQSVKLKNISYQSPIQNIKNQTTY
Protocol: The hyaluronidase inhibition assay was performed using hyaluronidase (1.5 mg/mL) and the substrate hyaluronic acid (1 mg/ml in 0.1 M acetate buffer; pH 3.5), according to a previous study. The reaction mixture was prepared consisting of 25 μL of CaCl2 (12.5 mM), 12.5 μL of each test sample (serial dilution), hyaluronidase (1.5 mg/mL), and 100 μL substrate hyaluronic acid. Afterwards, reaction mixture was placed in a water bath at 100°C for 3 min, and subsequently, 25 μL of 0.8 M KBO2 was added. After cooling to the room temperature, 800 μL DMAB (4 g DMAB in 40 mL acetic acid and 5 mL 10 N HCl) was added to the mixture following the incubation for 20 min. The absorbance was measured at 600 nm. Each measurement was made in triplicate. The percentage of hyaluronidase inhibition (%) was calculated according to the formula: inhibition (%) = [(Acontrol − Asample/Acontrol) × 100].
A sample: absorbance value of the hyaluronidase activity from samples or positive control (quercetin)
A control: absorbance value of the hyaluronidase activity from negative control (solution without samples)

mushroom tyrosinase = mushroom tyrosinase (Agaricus bisporus, UniProt C7FF04); assay: Tyrosinase inhibition; assay type: biochemical; settings: mean ± SD
mushroom tyrosinase, sequence (C7FF04 2-392): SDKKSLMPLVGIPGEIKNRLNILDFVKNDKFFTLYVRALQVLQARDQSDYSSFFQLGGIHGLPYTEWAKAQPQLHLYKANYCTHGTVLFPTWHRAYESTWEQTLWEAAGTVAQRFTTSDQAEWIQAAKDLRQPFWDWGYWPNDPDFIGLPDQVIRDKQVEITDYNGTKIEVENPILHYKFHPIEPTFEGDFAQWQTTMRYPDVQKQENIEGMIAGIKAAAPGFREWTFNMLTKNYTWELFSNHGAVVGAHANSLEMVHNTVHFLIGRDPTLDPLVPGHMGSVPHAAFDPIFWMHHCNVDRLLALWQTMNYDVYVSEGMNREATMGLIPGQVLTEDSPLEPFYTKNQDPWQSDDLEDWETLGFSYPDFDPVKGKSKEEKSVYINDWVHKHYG
Protocol: This assay was performed using mushroom tyrosinase and L-DOPA as substrates, according to a previous study with slight modifications. […] After adding L-DOPA, the reaction mixture was monitored at 475 nm for dopachrome formation using a microplate reader (Costar, 96). Each measurement was made in triplicate. The percentage of tyrosinase inhibition (%) was calculated according to the formula: inhibition (%) = [(Acontrol − Asample/Acontrol) × 100]. […] A control: absorbance value of the tyrosinase activity from negative control (solution without samples)

[2] = molecular target: Collagenase from Clostridium histolyticum; assay: Collagenase inhibition; assay type: biochemical; settings: mean ± SD
Protocol: The assay was performed according to a previous study. Collagenase was obtained from Clostridium histolyticum (ChC—EC.3.4.23.3), and the assay was performed in 50 mM Tricine buffer consisting of 400 mM NaCl and 10 mM CaCl2 (pH 7.5). Collagenase was dissolved in the buffer to achieve an enzyme activity concentration of 0.8 unit/mL, and the synthetic substrate N-[3-(2-furyl) acryloyl]-Leu-Gly-Pro-Ala (FALGPA) was dissolved in the buffer to make up the final concentration of 2 mM. Serial diluted samples were incubated with the enzyme for 15 min. After that, the substrate was added to each serial solution. Absorbance was measured using a microplate reader (Costar, 96) at 490 nm. Each measurement was made in triplicate. Percentage of collagenase inhibition (%) was calculated according to the formula: inhibition (%) = [(Acontrol − Asample/Acontrol) × 100].
A sample: absorbance value of the collagenase activity from samples or positive control (quercetin)
A control: absorbance value of the collagenase activity from negative control (solution without samples)

FRAP assay = assay: FRAP assay
Protocol: as §1

Structure (SMILES) | Collagenase IC50 [2] [µg/mL] | IC50 ([1]; mean ± SD) [µM] | also measured
O=C1O[C@H]([C@@H](O)CO)C(O)=C1O [Ascorbic acid] |  |  | DPPH (EC50) (DPPH assay): 2.92 ± 0.29 µg/mL
O.Oc1cc(O)c2c(c1)O[C@H](c1ccc(O)c(O)c1)[C@@H](O)C2 [Catechin] | 29.33 ± 2.4 |  | Elastase IC50 ([1]; mean ± SD): 15.00 ± 5.9 µg/mL; Hyaluronidase IC50 (hyaluronidase): 22.99 ± 0.2 µg/mL; Tyrosinase IC50 (mushroom tyrosinase): 22.54 ± 4.61 µg/mL
Oc1cc(O)c2c(c1)O[C@H](c1ccc(O)c(O)c1)[C@H](O)C2 [Epicatechin] | 65.96 ± 7.8 | 145 | 
O=c1cc(CO)occ1O [Kojic acid, reference compound] |  |  | pIC50 [1]: 3.82
O=c1c(O)c(-c2ccc(O)c(O)c2)oc2cc(O)cc(O)c12 [Quercetin] |  |  | FRAP (FRAP assay): 24.04 ± 1.23 mM FeSO4/mg extract
O=C(O)[C@]1(O)C[C@@H](O)[C@@H](O)[C@H](O)C1 [Quinic acid] | 52.78 ± 1.8 | 748 | 
C[C@@H]1O[C@@H](OC[C@H]2O[C@@H](Oc3c(-c4ccc(O)c(O)c4)oc4cc(O)cc(O)c4c3=O)[C@H](O)[C@@H](O)[C@@H]2O)[C@H](O)[C@H](O)[C@H]1O [Rutin] | 63.46 ± 3.4 | 199 | 
